Test results from the supplement of paper PMC11061612.

Assays:
[1] = system: Ca-Ski (Cervical Carcinoma); test: combination Emax (second highest fraction inhibited in the dose matrix, 72 h); higher = more inhibition; extreme values may be limits of the assay
Procedure, shortened: (§1)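 Cell lines grown in DMEM/F12 or RPMI with 10% FBS were plated in 1536-well plates and held 24 hours at 37°C, 5% CO2 before 72 hours of exposure to two-drug dose matrices, with DMSO typically at 0.2%. CellTiter-Glo 2.0 luminescence gave viability, which was converted to inhibition. Vehicle wells were set to 0 and blank wells to 1. Combination Emax is the second-highest inhibition in the matrix, and Bliss excess is the observed combination effect minus the expected EA + EB − EA·EB, where EA and EB are the single-agent effects.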

[2] = system: MV-4-11 (Acute Myeloid Leukemia); test: as above
Procedure, shortened: as §1

[3] = system: SK-LU-1 (Lung Adenocarcinoma); test: as above
Procedure, shortened: as §1

[4] = system: NCI-H522 (Lung Adenocarcinoma); test: as above
Procedure, shortened: as §1

[5] = system: SW872 (Other Solid Carcinomas); test: as above
Procedure, shortened: as §1

[6] = system: NCI-H1355 (Lung Adenocarcinoma); test: as above
Procedure, shortened: as §1

[7] = system: ML-2 (Acute Myeloid Leukemia); test: as above
Procedure, shortened: as §1

[8] = system: KMRC-1 (Kidney Carcinoma); test: as above
Procedure, shortened: as §1

[9] = system: COLO-679 (Melanoma); test: as above
Procedure, shortened: as §1

[10] = system: OE33 (Esophageal Adenocarcinoma); test: as above
Procedure, shortened: as §1

[11] = system: SNU-387 (Hepatocellular Carcinoma); test: as above
Procedure, shortened: as §1

[12] = system: SW982 (Other Solid Carcinomas); test: as above
Procedure, shortened: as §1

[13] = system: DU-145 (Prostate Carcinoma); test: as above
Procedure, shortened: as §1

[14] = system: Mo-T (Other Blood Carcinomas); test: as above
Procedure, shortened: as §1

[15] = system: COLO-668 (Small Cell Lung Carcinoma); test: as above
Procedure, shortened: as §1

[16] = system: Hey (Ovarian Carcinoma); test: Bliss excess, mean over the matrix (fraction); higher = more synergy
Procedure, shortened: as §1

[17] = system: NCI-H1092 (Small Cell Lung Carcinoma); test: as above
Procedure, shortened: as §1

[18] = system: G-401 (Other Solid Carcinomas); test: combination Emax (second highest fraction inhibited in the dose matrix, 72 h); higher = more inhibition; extreme values may be limits of the assay
Procedure, shortened: as §1

[19] = system: LC-1-sq (Squamous Cell Lung Carcinoma); test: as above
Procedure, shortened: as §1

[20] = system: EW-1 (Ewing's Sarcoma); test: as above
Procedure, shortened: as §1
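Throughout, for Bliss excess, mean over the matrix: after 72 h of two-drug dosing.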

Row | SMILES | combination Emax [1] | combination Emax [2] | combination Emax [3] | combination Emax [4] | combination Emax [5] | combination Emax [6] | combination Emax [7] | combination Emax [8] | combination Emax [9] | combination Emax [10] | combination Emax [11] | combination Emax [12] | combination Emax [13] | combination Emax [14] | combination Emax [15] | Bliss excess [16] | Bliss excess [17] | combination Emax [18] | combination Emax [19] | combination Emax [20]
1 | O=C(c1cc(Cc2n[nH]c(=O)c3ccccc23)ccc1F)N1CCN(C(=O)C2CC2)CC1 [Olaparib] + CC1(C)CCC(CN2CCN(c3ccc(C(=O)NS(=O)(=O)c4ccc(NCC5CCOCC5)c([N+](=O)[O-])c4)c(Oc4cnc5[nH]ccc5c4)c3)CC2)=C(c2ccc(Cl)cc2)C1 [Venetoclax] (first compound max 10 µM, 7x7, partner max 1 µM) | 0.162 | 1 | 0.2 | 0.0786 | 0.141 | 0.172 | 0.961 | 0.182 | 0.0175 | 0.139 | 0.256 | 0.432 | 0.126 | 0.186 | 0.255 |  |  |  |  | 
2 | Cc1c2c(nn1C)CSCc1cc(n(C)n1)CSc1cc(c3ccccc3c1)OCCCc1c(C(=O)O)n(C)c3c-2c(Cl)ccc13 [AZD5991] + CC(=O)O[C@H]1C(=O)[C@@]2(C)[C@H]([C@H](OC(=O)c3ccccc3)[C@]3(O)C[C@H](OC(=O)[C@H](O)[C@@H](NC(=O)c4ccccc4)c4ccccc4)C(C)=C1C3(C)C)[C@]1(OC(C)=O)CO[C@@H]1C[C@@H]2O [Paclitaxel] (first compound max 1 µM, 7x7, partner max 3 µM) | 0.919 | 1 | 0.39 | 0.969 | 0.869 | 0.76 | 1 | 0.508 | 0.565 | 0.524 | 0.913 | 0.953 | 0.686 | 0.658 | 0.46 |  |  |  |  | 
3 | O=C(c1cc(Cc2n[nH]c(=O)c3ccccc23)ccc1F)N1CCN(C(=O)C2CC2)CC1 [Olaparib] + COc1nnc2ccc(N3CCC(c4ccc(OCCN5CCN(C)C(=O)[C@H]5C)cc4)CC3)nn12 [AZD5153] (first compound max 10 µM, 7x7, partner max 1 µM) | 0.481 | 1 | 0.332 | 0.309 | 0.568 | 0.335 | 0.917 | 0.277 | 0.321 | 0.224 | 0.419 | 0.787 | 0.219 | 0.59 | 0.323 |  |  |  |  | 
4 | C[C@@H](Oc1cc(-c2cnn(C3CCNCC3)c2)cnc1N)c1c(Cl)ccc(F)c1Cl [Crizotinib] + CC1=C(C(=CC=C1)Cl)NC(=O)C2=CN=C(S2)NC3=CC(=NC(=N3)C)N4CCN(CC4)CCO [Dasatinib] (first compound max 10 µM, 7x7, partner max 2 µM) | 0.942 | 0.985 | 0.479 | 0.339 | 0.615 | 0.289 | 0.969 | 0.815 | 0.297 | 0.853 | 0.743 | 1 | 0.462 | 0.383 | 0.415 |  |  |  |  | 
5 | C=CCn1c(=O)c2cnc(Nc3ccc(N4CCN(C)CC4)cc3)nc2n1-c1cccc(C(C)(C)O)n1 [AZD1775] + CCc1c2c(nc3ccc(O)cc13)-c1cc3c(c(=O)n1C2)COC(=O)[C@]3(O)CC [SN-38] (first compound max 1 µM, partner max 0.3 µM) | 1 | 0.999 | 0.645 | 0.7 | 0.933 | 0.659 | 1 | 0.534 | 0.632 | 0.734 | 0.497 | 0.866 | 0.598 | 0.817 | 0.956 |  |  |  |  | 
6 | C[C@@H](Oc1cc(-c2cnn(C3CCNCC3)c2)cnc1N)c1c(Cl)ccc(F)c1Cl [Crizotinib] + Cn1cnc2c(F)c(Nc3ccc(Br)cc3Cl)c(C(=O)NOCCO)cc21 [Selumetinib] (first compound max 10 µM, 7x7, partner max 10 µM) | 0.551 | 1 | 0.34 | 0.117 | 0.338 | 0.388 | 1 | 0.323 | 0.798 | 0.539 | 0.89 | 0.973 | 0.12 | 0.466 | 0.852 |  |  |  |  | 
7 | Cc1c2c(nn1C)CSCc1cc(n(C)n1)CSc1cc(c3ccccc3c1)OCCCc1c(C(=O)O)n(C)c3c-2c(Cl)ccc13 [AZD5991] + CS(=O)(=O)CCNCc1ccc(-c2ccc3ncnc(Nc4ccc(OCc5cccc(F)c5)c(Cl)c4)c3c2)o1 [Lapatinib] (first compound max 1 µM, 7x7, partner max 10 µM) | 0.735 | 1 | 0.229 | 0.626 | 0.32 | 0.326 | 1 | 0.54 | 0.188 | 0.529 | 0.459 | 0.621 | 0.198 | 0.371 | 0.285 |  |  |  |  | 
8 | CC1(C)CCC(CN2CCN(c3ccc(C(=O)NS(=O)(=O)c4ccc(NCC5CCOCC5)c([N+](=O)[O-])c4)c(Oc4cnc5[nH]ccc5c4)c3)CC2)=C(c2ccc(Cl)cc2)C1 [Venetoclax] + CCN(CCO)CCCOc1ccc2c(Nc3cc(CC(=O)Nc4cccc(F)c4)[nH]n3)ncnc2c1 [AZD2811] (first compound max 1 µM, 7x7, partner max 1 µM) | 0.346 | 1 |  | 0.217 | 0.142 | 0.323 | 0.998 | 0.158 | 0.133 | 0.174 | 0.215 | 0.55 | 0.157 | 0.611 | 0.618 | 0.0408 | 0.075 | 0.483 | 0.226 | 0.365
9 | CC1(C)CCC(CN2CCN(c3ccc(C(=O)NS(=O)(=O)c4ccc(NCC5CCOCC5)c([N+](=O)[O-])c4)c(Oc4cnc5[nH]ccc5c4)c3)CC2)=C(c2ccc(Cl)cc2)C1 [Venetoclax] + C=CCn1c(=O)c2cnc(Nc3ccc(N4CCN(C)CC4)cc3)nc2n1-c1cccc(C(C)(C)O)n1 [AZD1775] (first compound max 1 µM, partner max 1 µM) | 0.836 | 1 |  | 0.289 | 0.557 | 0.607 | 1 | 0.394 | 0.413 | 0.623 | 0.702 | 0.742 | 0.349 | 0.629 | 0.943 | -0.0821 | 0.0018 | 0.83 | 0.689 | 0.947
10 | CCc1c2c(nc3ccc(O)cc13)-c1cc3c(c(=O)n1C2)COC(=O)[C@]3(O)CC [SN-38] + CN(C)CCCOc1ccc(-c2ccc3ncc4c(c3c2)n(C2CCOCC2)c(=O)n4C)cn1 [AZD0156] (first compound max 0.3 µM, 7x7, partner max 1 µM) | 0.99 | 1 |  | 0.43 | 0.98 | 0.361 | 1 | 0.419 | 0.659 | 0.642 | 0.229 | 0.803 | 0.742 | 0.673 | 0.961 | 0.0372 | -0.0472 | 0.596 | 0.442 | 0.982
11 | COc1cccc(OCCCN)c1-c1cc(Nc2cnc(C#N)cn2)n[nH]1 [Prexasertib] + CN(C)CCCOc1ccc(-c2ccc3ncc4c(c3c2)n(C2CCOCC2)c(=O)n4C)cn1 [AZD0156] (first compound max 1 µM, 7x7, partner max 1 µM) | 0.741 | 0.998 |  | 0.385 | 0.863 | 0.709 | 1 | 0.558 | 0.871 | 0.826 | 0.531 | 0.759 | 0.624 | 0.392 | 0.758 | -0.0098 | -0.0561 | 0.626 | 0.953 | 0.958
12 | COc1cccc(OCCCN)c1-c1cc(Nc2cnc(C#N)cn2)n[nH]1 [Prexasertib] + CCc1c2c(nc3ccc(O)cc13)-c1cc3c(c(=O)n1C2)COC(=O)[C@]3(O)CC [SN-38] (first compound max 1 µM, 7x7, partner max 0.3 µM) | 0.983 | 1 |  | 0.8 | 1 | 0.756 | 1 | 0.455 | 0.826 | 0.811 | 0.795 | 0.796 | 0.807 | 0.698 | 0.973 | -0.0717 | 0.0354 | 0.929 | 0.889 | 0.995
13 | CC1(C)CCC(CN2CCN(c3ccc(C(=O)NS(=O)(=O)c4ccc(NCC5CCOCC5)c([N+](=O)[O-])c4)c(Oc4cnc5[nH]ccc5c4)c3)CC2)=C(c2ccc(Cl)cc2)C1 [Venetoclax] + COc1cc(Nc2ncc3c(n2)-c2ccc(Cl)cc2C(c2c(F)cccc2OC)=NC3)ccc1C(=O)O [Alisertib] (first compound max 1 µM, 7x7, partner max 10 µM) | 0.64 | 1 |  | 0.277 | 0.265 | 0.473 | 0.988 | 0.384 | 0.282 | 0.314 | 0.191 | 0.606 | 0.268 | 0.71 | 0.474 | -0.0449 | 0.294 | 0.657 | 0.275 | 0.628
